# Assay results: the supplement of paper PMC10307832
# Experiments:
# Experiment in all cases: relative viability (nuclei count vs DMSO), 5 days (fraction); higher = more cells survive
# IU1-47 + Bortezomib = compound: CC1=CC(=C(N1C2=CC=C(C=C2)Cl)C)C(=O)CN3CCCCC3 [IU1-47] + CC(C)C[C@H](NC(=O)[C@H](Cc1ccccc1)NC(=O)c1cnccn1)B(O)O [Bortezomib] (partner 0.002 µM)
# In short: (§1)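 One day after seeding in 1536-well plates, lung cancer cell lines were dosed by pin tool. Dosing was either single-drug or a fixed anchor-drug dose plus five library-drug doses (not always all listed) in √10 steps. After 5 days, nuclei were stained in one fix-and-stain step and counted on 4× images, and relative viability is the nuclei count of treated wells over that of vehicle wells, given as the median of duplicate plates.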
# IU1-47 + Linsitinib = compound: CC1=CC(=C(N1C2=CC=C(C=C2)Cl)C)C(=O)CN3CCCCC3 [IU1-47] + C[C@]1(O)C[C@@H](c2nc(-c3ccc4ccc(-c5ccccc5)nc4c3)c3c(N)nccn32)C1 [Linsitinib] (partner 1 µM)
# In short: as §1
# FG-4592 + Palbociclib = compound: Cc1nc(C(=O)NCC(=O)O)c(O)c2ccc(Oc3ccccc3)cc12 [FG-4592] + CC(=O)c1c(C)c2cnc(Nc3ccc(N4CCNCC4)cn3)nc2n(C2CCCC2)c1=O [Palbociclib] (partner 0.5 µM)
# In short: as §1
# FG-4592 + Dasatinib = compound: Cc1nc(C(=O)NCC(=O)O)c(O)c2ccc(Oc3ccccc3)cc12 [FG-4592] + Cc1nc(Nc2ncc(C(=O)Nc3c(C)cccc3Cl)s2)cc(N2CCN(CCO)CC2)n1 [Dasatinib] (partner 0.075 µM)
# In short: as §1
Cell Line,relative viability (IU1-47 + Bortezomib; first compound 0.08 µM),relative viability (IU1-47 + Bortezomib; first compound 0.253 µM),relative viability (IU1-47 + Bortezomib; first compound 0.8 µM),relative viability (IU1-47 + Bortezomib; first compound 8 µM),relative viability (IU1-47 + Linsitinib; first compound 0.08 µM),relative viability (IU1-47 + Linsitinib; first compound 0.253 µM),relative viability (IU1-47 + Linsitinib; first compound 0.8 µM),relative viability (IU1-47 + Linsitinib; first compound 8 µM),relative viability (FG-4592 + Palbociclib; first compound 0.08 µM),relative viability (FG-4592 + Palbociclib; first compound 0.253 µM),relative viability (FG-4592 + Palbociclib; first compound 0.8 µM),relative viability (FG-4592 + Palbociclib; first compound 2.53 µM),relative viability (FG-4592 + Palbociclib; first compound 8 µM),relative viability (FG-4592 + Dasatinib; first compound 0.08 µM),relative viability (FG-4592 + Dasatinib; first compound 0.253 µM),relative viability (FG-4592 + Dasatinib; first compound 0.8 µM),relative viability (FG-4592 + Dasatinib; first compound 2.53 µM),relative viability (FG-4592 + Dasatinib; first compound 8 µM),relative viability (IU1-47 + Bortezomib; first compound 2.53 µM),relative viability (IU1-47 + Linsitinib; first compound 2.53 µM)
HCC-366,1.13,1.02,1.25,0.866,0.698,0.643,0.951,0.567,0.365,0.367,0.311,0.437,0.291,0.624,0.607,0.339,0.573,0.414,,
HCC-827,1.22,1.12,1.05,1.11,0.99,0.92,0.941,0.963,0.438,0.417,0.402,0.507,0.467,0.264,0.379,0.386,0.259,0.282,1.08,1.01
HOP-62,0.926,1.05,0.701,0.77,0.98,1.04,0.805,0.886,0.393,0.439,0.365,0.407,0.37,0.637,0.569,0.567,0.642,0.628,0.753,0.677
LC-2-ad,1.03,1.08,1.1,0.97,0.863,0.91,0.845,0.918,0.473,0.456,0.515,0.549,0.476,0.513,0.559,,0.536,0.66,1.03,0.853
LCLC-97TM1,0.9,1.13,0.455,0.261,0.177,0.228,0.168,0.175,0.254,0.215,,0.181,0.191,0.873,0.734,0.907,0.928,1.03,0.425,
LCLC-103H,1.2,1.14,1.1,1.08,1.07,1.07,1.18,1.3,0.474,0.408,0.414,0.467,0.454,0.414,0.492,0.311,0.342,0.408,1.12,1.07
LOU-NH91,0.515,0.473,0.483,0.451,1.07,1.06,0.939,0.868,0.534,0.514,0.54,0.517,0.544,0.554,0.521,0.512,0.559,0.533,0.535,0.907
LU99A,1.12,1.23,1.06,1.09,0.538,0.511,0.656,0.54,0.38,0.417,,0.432,0.382,0.535,0.371,0.402,0.561,0.58,1.12,0.602
